The experiment deals with T1, human platelet phospholipase A2 (Homo sapiens, UniProt P14555).
T1 construct: a preparation of human platelet phospholipase A2; from tissue; host or cells: human platelets
T1 sequence (P14555 21-144): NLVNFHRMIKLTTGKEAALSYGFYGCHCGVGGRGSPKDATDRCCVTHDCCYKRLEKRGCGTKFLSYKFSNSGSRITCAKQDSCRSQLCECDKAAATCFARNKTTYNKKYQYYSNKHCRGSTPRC
Briefly: Inhibition of human platelet phospholipase A2 (14C-oleate E. coli substrate). Format: biochemical. The conditions noted are these: for inhibition at 10 µM: @ 10 μM (values marked *), read-out: Inhibition of PLA2, % Inhibition @ *10 μM; for pIC50: pH 7.0, 37°, 60 min incubation, read-out: Inhibition of PLA2, IC50; for inhibition at 50 µM: read-out: Inhibition of PLA2, % Inhibition @ 50 μM. On the procedure:
The activity of the compounds of the invention against phospholipase A2 is determined using a preparation of human platelet phospholipase A2 with a specific activity of 180 nmol/min/mg as the enzyme source. Polypropylene 15-ml test tubes are utilized as the reaction vessels. All drug samples are run in duplicate, with "blank" and "control" (no test compound) groups run in triplicate. […] Test compounds are dissolved in DMSO, and diluted to a projected final concentration of either 50 or 10 μM in 550 μl HEPES buffer at pH 7.0. A 1:7 dilution of human platelet PLA2 in HEPES buffer (5 μl) is added to each test tube, followed by gentle vortexing for 3 seconds. The reaction tubes containing drug, buffer, and enzyme are preincubated for 15 min at 37°, followed by the addition of 25 μl of ^14 C-oleate E. coli substrate. Details regarding this substrate may be found in a publication by S. Ghosh and R. Franson, Biochem. Cell. Biol., 70, 43 (1992), and references therein.
The tubes are immediately vortexed at moderate speed for 3 sec, followed by a 60 min incubation at 37° in a shaking water bath. The reaction is stopped by the addition of 3 ml of a 1:2 chloroform-methanol mixture. Additional water (1.5 ml) and chloroform (1.0 ml) are added, followed by vortexing. The lower phase is removed with a polypropylene transfer pipette, and transferred to a 13×100 mm polypropylene test tube. The organic solvent is evaporated with a stream of nitrogen, the residue is redissolved in 30 μl of a 9:1 chloroform-methanol mixture, and the solution is spotted on a channeled polyester-backed silica gel TLC plate, such as those available under the trade name PE SIL G available from Whatman Inc, Clifton, N.J.
The plate is developed with an 80:20:1 mixture of petroleum ether-diethyl ether-acetic acid. […] The plate is scored above the origin, cut along the score with scissors, and the reactant (origin) and product portions of each channel are put into separate scintillation vials. To each vial is added a scintillation cocktail (15 ml), preferably that sold under the trademark ECOLUME by ICN Biomedicals, Irvine Calif. The vials are shaken vigorously for 5 sec, and the radioactive ^14 C in each vial is measured with a scintillation counter, which provides the counts-per-minute (cpm) for each sample. The obtained cpm values are corrected for the "blank" values.
The percentage of phospholipid hydrolyzed is calculated by the formula:
Phospholipid converted=100×cpm products / (cpm products+cpm
The inhibition of phospholipase A2 by the test compounds is expressed as a percent inhibition relative to the control group:
% Inhibition=[…]

Our source for the inhibition and IC50 values is patent US5464865A, “4-aryl- and 4-arylthio-5-hydroxy-2(5H)-furanones as inhibitors of phospholipase A2” (Ortho Pharmaceutical Corporation, priority 1993, dated 1995).

pIC50: −log10 of the molar value.

Regarding `CCCCCCCCOc1ccc(C2=CC(=O)OC2O)cc1[N+](=O)[O-]` (centres unmarked) [Example 7, 5-Hydroxy-4-(3-nitro-4-octyloxyphenyl)-2(5H)furanone], the inhibition at 10 µM stood at 67% and the negative-log IC50 (pIC50) was 5.03.

In the case of `CCCCCCCCS(=O)(=O)c1ccc(C2=CC(=O)OC2O)cc1` (centres unmarked) [Example 22, 5-Hydroxy-4-(4-octylsulfonyl)phenyl-2(5H)furanone], the inhibition at 10 µM came to 49%.

Turning to `O=C1C=C(c2ccc(C#Cc3ccc4ccccc4c3)cc2)C(O)O1` (centres unmarked) [Example 56, 5-Hydroxy-4-(4-(2-(2-naphthyl)ethynyl)phenyl)-2(5H)-furanone], the inhibition at 50 µM was 59%.

Take `O=C1C=C(c2ccc(/C=C\c3ccccc3)cc2)C(O)O1` (single isomer, unassigned) [Example 33, (Z)-5-Hydroxy-4-(4-(2-phenylethenyl)phenyl)-2(5H)-furanone]: the inhibition at 50 µM came to 23%.

For the compound `O=C1C=C(c2ccc(C(=O)c3ccc4ccccc4c3)cc2)C(O)O1` (centres unmarked) [Example 29, 5-Hydroxy-4-(4-(2-naphthoyl)phenyl)-2(5H)-furanone], the pIC50 was 4.30 and the inhibition at 50 µM is 59%.

In the case of `CC(C)(C)C#Cc1ccc(C2=CC(=O)OC2O)cc1` (centres unmarked) [Example 53, 5-Hydroxy-4-(4-(3,3-dimethyl-1-butynyl)phenyl)-2(5H)-furanone], the pIC50 was 4.38 and the inhibition at 50 µM worked out at 53%.

`O=C1C=C(Sc2ccc(Br)cc2)C(O)O1` (centres unmarked) [Example 68, 5-Hydroxy-4-((4-bromophenyl)thio)-2(5H)-furanone]: the inhibition at 50 µM worked out at 0%.

Consider `O=C1C=C(c2ccc(Oc3ccc4ccccc4c3)cc2)C(O)O1` (centres unmarked) [Example 50, 5-Hydroxy-4-(4-(2-naphthyloxy)phenyl)-2(5H)-furanone], for which the pIC50 was 4.30 and the inhibition at 50 µM is 52%.

As to `CCCCCCCC(=O)Nc1cccc(C2=CC(=O)OC2O)c1` (centres unmarked) [Example 20, 5-Hydroxy-4-(3-(1-oxooctylamino)phenyl)-2(5H)furanone], the inhibition at 50 µM was found to be 0%.

For the compound `O=C1C=C(c2cccc(C#Cc3ccccc3)c2)C(O)O1` (centres unmarked) [Example 63, 5-Hydroxy-4-(3-(2-phenylethynyl)phenyl)-2(5H)-furanone], the inhibition at 10 µM turned out to be 45%.

In the case of `CCCCCOc1ccc(SC2=CC(=O)OC2O)cc1` (centres unmarked) [Example 66, 5-Hydroxy-4-(4-(pentyloxy)phenylthio)-2(5H)-furanone], the inhibition at 10 µM is 48%.

For the compound `O=C1C=C(c2ccc(C#Cc3cccc4ccccc34)cc2)C(O)O1` (centres unmarked) [Example 57, 5-Hydroxy-4-(4-(2-(1-naphthyl)ethynyl)phenyl)-2(5H)-furanone], the pIC50 is 5.08 and the inhibition at 50 µM is 69%.

On to `CCCCCCCCOc1ccc(C2=CC(=O)OC2O)cc1OC` (centres unmarked) [Example 6, 5-Hydroxy-4-(3-methoxy-4-octyloxyphenyl)-2(5H)furanone], for which the inhibition at 10 µM turned out to be 27%.

As for `CCCCSc1ccc(C2=CC(=O)OC2O)cc1` (centres unmarked) [Example 24, 5-Hydroxy-4-(4-(butylthio)phenyl)-2(5H)furanone], the inhibition at 50 µM worked out at 0%.

As for `CC1=C(C/C=C(\C)CCCOc2ccc(C3=CC(=O)OC3O)cc2)C(C)(C)CCC1` (centres unmarked) [Example 26, (E)-5-Hydroxy-4-(4-(4-methyl-6-(2,6,6-trimethyl-1-cyclohexen-1-yl)-4-hexenyloxy)phenyl)-2(5H)-furanone], the inhibition at 10 µM worked out at 92%.

For the compound `O=C1C=C(c2ccc(OS(=O)(=O)C(F)(F)F)cc2)C(O)O1` (centres unmarked) [Example 46, 5-Hydroxy-4-(4-(trifluoromethanesulfonoxy)phenyl)-2(5H)-furanone], the inhibition at 50 µM is 0%.

`CC(C)c1cc(C2=CC(=O)OC2O)cc(C(C)C)c1O` (centres unmarked) [Example 47, 5-Hydroxy-4-(3,5-bis(1-methylethyl)-4-hydroxyphenyl)-2(5H)-furanone]: the inhibition at 10 µM came out at 2%.

With `CCCCCCCC(=O)Nc1ccc(C2=CC(=O)OC2O)cc1` (centres unmarked) [Example 21, 5-Hydroxy-4-(4-(1-oxooctylamino)phenyl)-2(5H)furanone], the inhibition at 50 µM came out at 0%.

Turning to `CCCCCCCCOc1ccc(C2=CC(=O)OC2O)c(OC)c1` (centres unmarked) [Example 5, 5-Hydroxy-4-(2-methoxy-4-octyloxyphenyl)-2(5H)furanone], the inhibition at 10 µM was 58%.

As to `COc1ccc(CCNC(=O)c2ccc(C3=CC(=O)OC3O)cc2)cc1OC` (centres unmarked) [Example 48, 5-Hydroxy-4-(4-((2-(3,4-dimethoxyphenyl)ethyl)aminocarbonyl)phenyl)-2(5H)-furanone], the inhibition at 50 µM was 0%.

Take `O=C1C=C(c2ccc(COc3ccc4ccccc4c3)cc2)C(O)O1` (centres unmarked) [Example 52, 5-Hydroxy-4-(4-(2-naphthyloxymethyl)phenyl)-2(5H)-furanone]: the pIC50 was 4.30 and the inhibition at 50 µM amounted to 51%.

For `O=C1C=C(c2ccc(C(=O)c3ccccc3F)cc2)C(O)O1` (centres unmarked) [Example 31, 5-Hydroxy-4-(4-(2-fluorobenzoyl)phenyl)-2(5H)-furanone], the inhibition at 50 µM was 6%.

As for `CCCCCCCCOc1ccc(C2=CC(=O)OC2O)c(Cl)c1` (centres unmarked) [Example 2, 5-Hydroxy-4-(2-chloro-4-octyloxyphenyl)-2(5H)furanone], the inhibition at 10 µM was 69% and the pIC50 is 5.12.

As to `O=C1C=C(c2ccc(CC(O)COc3ccc4ccccc4c3)cc2)C(O)O1` (racemic) [Example 51, 5-Hydroxy-4-(4-(2-hydroxy-3-(2-naphthyloxy)propyl)phenyl)-2(5H)-furanone], the inhibition at 50 µM came out at 30%.

For the compound `CCCCCCCCOc1ccc(C2=CC(=O)OC2O)cc1NC(C)=O` (centres unmarked) [Example 9, 5-Hydroxy-4-(3-acetamido-4-octyloxyphenyl)-2(5H)furanone], the inhibition at 10 µM was 7%.

Regarding `CCCCCCCCOc1ccccc1C1=CC(=O)OC1O` (centres unmarked) [Example 8, 5-Hydroxy-4-(2-octyloxyphenyl)-2(5H)furanone], the inhibition at 10 µM worked out at 21%.

Consider `O=C1C=C(c2ccc(C#Cc3ccc([N+](=O)[O-])cc3)cc2)C(O)O1` (centres unmarked) [Example 60, 5-Hydroxy-4-(4-(2-(4-nitrophenyl)ethynyl)phenyl)-2(5H)-furanone], for which the inhibition at 10 µM was found to be 11%.

For `CCCCCCCCSc1nc(C2=CC(=O)OC2O)cs1` (centres unmarked) [Example 70, 5-Hydroxy-4-(2-(octylthio)-4-thiazolyl)-2(5H)-furanone], the inhibition at 50 µM was 70%.

As to `CCCCCCCC(=O)c1ccc(C2=CC(=O)OC2O)cc1` (centres unmarked) [Example 32, 5-Hydroxy-4-(4-octanoylphenyl)-2(5H)-furanone], the inhibition at 50 µM was 55%.

For `CCCCCCCCOc1ccc(C2=CC(=O)OC2O)cn1` (centres unmarked) [Example 69, 5-Hydroxy-4-(6-octyloxy-3-pyridyl)-2(5H)-furanone], the inhibition at 50 µM stood at 52%.

Regarding `C=CCOc1cccc(C2=CC(=O)OC2O)c1` (centres unmarked) [Example 11, 5-Hydroxy-4-[(3-allyloxy)phenyl]-2(5H)furanone], the inhibition at 50 µM was determined as 0%.

For the compound `O=C1C=C(c2ccc(Cc3ccccc3)cc2)C(O)O1` (centres unmarked) [Example 49, 5-Hydroxy-4-(4-(phenylmethyl)phenyl)-2(5H)-furanone], the inhibition at 50 µM worked out at 5%.

Take `CCCCCCCCOc1ccc(C2=CC(=O)OC2O)cc1Cl` (centres unmarked) [Example 4, 5-Hydroxy-4-(3-chloro-4-octyloxyphenyl)-2(5H)furanone]: the inhibition at 10 µM was 71% and the pIC50 is 5.27.

Turning to `COc1ccc(C#Cc2ccc(C3=CC(=O)OC3O)cc2)cc1` (centres unmarked) [Example 61, 5-Hydroxy-4-(4-(2-(4-methoxyphenyl)ethynyl)phenyl)-2(5H)-furanone], the inhibition at 50 µM came to 33%.

As to `CCCCCCCCCCCCCOc1ccc(SC2=CC(=O)OC2O)cc1` (centres unmarked) [Example 65, 5-Hydroxy-4-(4-(tridecyloxy)phenylthio)-2(5H)-furanone], the inhibition at 10 µM amounted to 98%.

Turning to `CCCCCCCCNS(=O)(=O)c1ccc(C2=CC(=O)OC2O)cc1` (centres unmarked) [Example 45, 5-Hydroxy-4-(4-(octylaminosulfonyl)phenyl)-2(5H)-furanone], the inhibition at 50 µM amounted to 13%.

What is called inhibition is the percentage by which the read-out fell short of the control. Broadly, the pIC50 is the negative decadic logarithm of the IC50, by convention in mol/L.
